Read-outs that look alike come from different tables or passages of the source. Where only a bound is given, the exact number is not on record here.

The results in this text go back to patent US20250122183A1 (Pfizer Inc., priority 2023, published 2025).

Common to all, as to type: biochemical
Assay [1] concerns the target KAT7+JADE1+EAF6+ING5 4 protein complex (Homo sapiens (Human), UniProt O95251). In words: KAT7 JADE1 assay (SAMDI-MS acetylation of H3 1-21 peptide). The note with it: replicate number in parentheses.
For assay [2], the target named is KAT7+BRPF1+EAF6+ING5 4 protein complex (Homo sapiens (Human), UniProt O95251). In words: KAT7 BRPF1 assay (SAMDI-MS acetylation of H3 1-21 peptide). The conditions noted are these: Morrison equation fit; replicate number in parentheses.
Assay [3] deals with KAT6A Full length enzyme (Homo sapiens (Human), UniProt Q92794). In words: KAT6A assay (SAMDI-MS acetylation of H3 1-21 peptide). The note with it: replicate number in parentheses.
In assay [4] the target is KAT8 Full length enzyme (Homo sapiens (Human), UniProt Q9H7Z6). Put plainly: KAT8 assay (SAMDI-MS acetylation of H3 1-21 peptide). The conditions noted are these: replicate number in parentheses.
Assay [5] concerns the target KAT5 Full length enzyme (Homo sapiens (Human), UniProt Q92993). In words: KAT5 assay (SAMDI-MS acetylation of H4 1-21 peptide). The note with it: replicate number in parentheses.
The target in assay [6] is KAT7+BRPF2+EAF6+ING5 4 protein complex (Homo sapiens (Human), UniProt O95251). In words: KAT7 BRPF2 assay (SAMDI-MS acetylation of H3 1-21 peptide). The conditions noted are these: replicate number in parentheses.
Setting [7] is: Morrison equation fit, read-out: KAT7 JADE1 Ki (nM) (replicate number).
The mark [8] stands for this setting: Morrison equation fit, read-out: KAT6A Ki (nM) (replicate number).
The mark [9] stands for this setting: Morrison equation fit, read-out: KAT8 Ki (nM) (replicate number).
The mark [10] stands for this setting: Morrison equation fit, read-out: KAT5 Ki (nM) (replicate number).
Setting [11] is: Morrison equation fit, read-out: KAT7 BRPF2 Ki (nM) (replicate number).
The mark [12] stands for this setting: read-out: KAT7 JADE1 Ki (nM) (replicate).
[13] abbreviates: read-out: KAT6A Ki (nM) (replicate).
Where [14] appears, read: read-out: KAT8 Ki (nM) (replicate).
The mark [15] stands for this setting: read-out: KAT7 BRPF2 Ki (nM) (replicate).
Setting [16] is: read-out: KAT5 Ki (nM) (replicate).

KAT5 Full length enzyme, sequence (Q92993 whole entry): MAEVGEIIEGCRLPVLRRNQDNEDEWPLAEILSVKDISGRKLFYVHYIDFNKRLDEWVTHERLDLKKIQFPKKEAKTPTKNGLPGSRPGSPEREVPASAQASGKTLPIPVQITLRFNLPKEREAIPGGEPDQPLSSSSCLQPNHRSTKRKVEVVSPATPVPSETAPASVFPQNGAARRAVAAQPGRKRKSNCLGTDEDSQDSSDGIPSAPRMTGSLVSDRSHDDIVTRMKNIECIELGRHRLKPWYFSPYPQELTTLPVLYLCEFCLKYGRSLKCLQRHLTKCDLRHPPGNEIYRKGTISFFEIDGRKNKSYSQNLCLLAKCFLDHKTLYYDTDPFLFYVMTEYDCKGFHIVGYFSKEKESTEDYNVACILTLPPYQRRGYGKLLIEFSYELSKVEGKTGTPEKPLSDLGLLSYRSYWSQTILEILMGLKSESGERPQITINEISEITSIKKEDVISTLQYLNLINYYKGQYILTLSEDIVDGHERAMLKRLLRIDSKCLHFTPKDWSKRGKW
KAT6A Full length enzyme, sequence (Q92794 other isoform, or with tags, fused parts or gaps): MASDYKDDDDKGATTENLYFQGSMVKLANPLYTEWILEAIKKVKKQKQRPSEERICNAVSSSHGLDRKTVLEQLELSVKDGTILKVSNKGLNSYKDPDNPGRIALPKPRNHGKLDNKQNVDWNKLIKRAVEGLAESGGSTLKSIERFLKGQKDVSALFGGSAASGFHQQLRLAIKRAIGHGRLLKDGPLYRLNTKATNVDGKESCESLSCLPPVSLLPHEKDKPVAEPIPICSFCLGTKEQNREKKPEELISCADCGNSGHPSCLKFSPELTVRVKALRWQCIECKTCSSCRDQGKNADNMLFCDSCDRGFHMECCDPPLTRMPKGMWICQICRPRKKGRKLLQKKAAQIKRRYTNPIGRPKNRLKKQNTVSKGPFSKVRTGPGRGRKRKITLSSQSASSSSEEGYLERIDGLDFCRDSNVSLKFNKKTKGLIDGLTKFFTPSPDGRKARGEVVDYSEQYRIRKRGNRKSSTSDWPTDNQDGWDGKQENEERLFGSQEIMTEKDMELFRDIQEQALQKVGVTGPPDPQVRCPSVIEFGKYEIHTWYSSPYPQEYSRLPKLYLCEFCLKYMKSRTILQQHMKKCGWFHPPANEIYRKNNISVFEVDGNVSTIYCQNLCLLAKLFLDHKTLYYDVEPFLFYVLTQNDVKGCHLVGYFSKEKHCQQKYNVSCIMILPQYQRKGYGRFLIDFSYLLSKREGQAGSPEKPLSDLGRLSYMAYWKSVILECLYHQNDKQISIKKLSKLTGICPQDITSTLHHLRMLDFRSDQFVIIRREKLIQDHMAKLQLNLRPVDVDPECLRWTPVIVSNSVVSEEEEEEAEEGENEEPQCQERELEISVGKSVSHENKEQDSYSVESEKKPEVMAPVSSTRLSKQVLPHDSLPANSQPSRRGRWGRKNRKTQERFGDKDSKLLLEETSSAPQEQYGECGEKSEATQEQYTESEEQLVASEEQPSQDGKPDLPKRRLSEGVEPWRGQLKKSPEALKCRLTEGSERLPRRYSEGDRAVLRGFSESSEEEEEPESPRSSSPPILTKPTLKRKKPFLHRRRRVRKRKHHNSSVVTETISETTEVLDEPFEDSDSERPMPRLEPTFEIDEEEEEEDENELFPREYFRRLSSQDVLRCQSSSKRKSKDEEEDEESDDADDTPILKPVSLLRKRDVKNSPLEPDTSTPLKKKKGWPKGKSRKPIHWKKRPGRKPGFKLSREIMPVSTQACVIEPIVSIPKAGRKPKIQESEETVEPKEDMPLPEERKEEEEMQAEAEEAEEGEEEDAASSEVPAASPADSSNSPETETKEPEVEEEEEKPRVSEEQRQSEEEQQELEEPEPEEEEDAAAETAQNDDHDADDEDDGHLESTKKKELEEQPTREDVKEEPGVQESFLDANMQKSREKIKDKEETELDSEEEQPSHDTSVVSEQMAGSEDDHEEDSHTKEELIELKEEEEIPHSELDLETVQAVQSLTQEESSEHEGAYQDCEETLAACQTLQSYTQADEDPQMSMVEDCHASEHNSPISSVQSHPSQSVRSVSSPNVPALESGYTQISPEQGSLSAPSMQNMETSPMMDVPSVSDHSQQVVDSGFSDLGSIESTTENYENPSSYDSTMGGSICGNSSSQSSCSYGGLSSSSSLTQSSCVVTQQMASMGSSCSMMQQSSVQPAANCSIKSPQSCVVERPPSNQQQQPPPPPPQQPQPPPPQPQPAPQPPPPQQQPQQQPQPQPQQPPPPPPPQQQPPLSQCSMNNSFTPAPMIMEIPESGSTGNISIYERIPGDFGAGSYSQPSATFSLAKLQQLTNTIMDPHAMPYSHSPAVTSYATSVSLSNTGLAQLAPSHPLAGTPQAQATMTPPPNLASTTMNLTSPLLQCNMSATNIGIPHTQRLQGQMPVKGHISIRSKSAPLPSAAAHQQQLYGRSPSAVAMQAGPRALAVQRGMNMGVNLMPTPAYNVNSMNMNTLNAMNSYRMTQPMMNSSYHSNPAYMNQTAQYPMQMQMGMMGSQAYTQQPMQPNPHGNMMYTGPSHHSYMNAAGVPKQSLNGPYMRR
KAT8 Full length enzyme, sequence (Q9H7Z6 whole entry): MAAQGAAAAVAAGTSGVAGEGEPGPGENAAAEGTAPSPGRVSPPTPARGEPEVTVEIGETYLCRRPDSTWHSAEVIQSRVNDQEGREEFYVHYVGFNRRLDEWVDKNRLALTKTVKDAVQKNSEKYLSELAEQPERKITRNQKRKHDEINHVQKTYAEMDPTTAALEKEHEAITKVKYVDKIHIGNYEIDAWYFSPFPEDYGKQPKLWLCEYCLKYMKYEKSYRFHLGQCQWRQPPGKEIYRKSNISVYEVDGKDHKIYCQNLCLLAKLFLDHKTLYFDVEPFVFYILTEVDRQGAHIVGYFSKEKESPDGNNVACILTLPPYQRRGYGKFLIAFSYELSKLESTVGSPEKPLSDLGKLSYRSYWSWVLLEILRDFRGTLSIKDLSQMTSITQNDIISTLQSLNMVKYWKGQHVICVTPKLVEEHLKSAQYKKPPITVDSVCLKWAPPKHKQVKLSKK

Take `COc1cc2c(NS(=O)(=O)c3c(OC)cc(-c4ncc(N5CCN(C)CC5)cn4)cc3OC)noc2cc1Nc1cc(C2CC2)n[nH]1` [Example 226, N-{6-[(3-cyclopropyl-1 H-pyrazol-5-yl)amino]-5-methoxy-1,2-benzoxazol-3-yl}-2,6-dimethoxy-4-[5-(4-methylpiperazin-1-yl)pyrimidin-2-yl]benzene-1-sulfonamide]: the Ki in assay [1] (setting [7]) is 3 nM; in assay [2], 2.4 nM; in assay [3] (setting [8]), 0.3 nM; in assay [4] (setting [9]) it was 572 nM; in assay [5] (setting [10]) it was 11.6 nM.

Regarding `COc1cc2c(NS(=O)(=O)c3c(OC)cc(-c4cscn4)cc3OC)noc2cc1Nc1cc(C2CC2)n[nH]1` [Example 121, N-{6-[(3-cyclopropyl-1H-pyrazol-5-yl)amino]-5-methoxy-1,2-benzoxazol-3-yl}-2,6-dimethoxy-4-(1,3-thiazol-4-yl)benzene-1-sulfonamide], the inhibition constant (Ki) in assay [1] (setting [7]) was determined as 8.9 nM; in assay [2], 2.1 nM; in assay [3] (setting [8]), 0.7 nM; in assay [4] (setting [9]), 1120 nM; in assay [5] (setting [10]), 106 nM.

Take `COc1cc2c(NS(=O)(=O)c3c(OC)cccc3OC)noc2cc1Nc1c(C#N)c(C)nn1C` [Example 46, N-{6-[(4-cyano-1,3-dimethyl-1H-pyrazol-5-yl)amino]-5-methoxy-1,2-benzoxazol-3-yl}-2,6-dimethoxybenzene-1-sulfonamide]: the Ki was more than 9770 nM in assay [1] (setting [7]), more than 16100 nM in assay [2] and more than 377 nM in assay [3] (setting [8]).

Take `COc1cc2c(NS(=O)(=O)c3c(OC)cc(-c4ncc(C)cn4)cc3OC)noc2cc1Nc1cc(C2CC2)n[nH]1` [Example 213, N-{6-[(3-cyclopropyl-1H-pyrazol-5-yl)amino]-5-methoxy-1,2-benzoxazol-3-yl}-2,6-dimethoxy-4-(5-methylpyrimidin-2-yl)benzene-1-sulfonamide]: the inhibitory constant (Ki) turned out to be 3.9 nM in assay [1] (setting [7]), 1.7 nM in assay [2], 0.5 nM in assay [3] (setting [8]) and 1570 nM in assay [4] (setting [9]).

Regarding `COc1cc2c(NS(=O)(=O)c3c(OC)cccc3OC3CCC3)noc2cc1Nc1cc[nH]n1` [Example 33, 2-(cyclobutyloxy)-6-methoxy-N-{5-methoxy-6-[(1H-pyrazol-3-yl)amino]-1,2-benzoxazol-3-yl}benzene-1-sulfonamide], the Ki amounted to 142 nM in assay [1] (setting [7]), 15.4 nM in assay [2], 733 nM in assay [4] (setting [9]) and 988 nM in assay [5] (setting [10]).

Take `COc1cc2c(NS(=O)(=O)c3c(OC)cccc3OC)noc2cc1Nc1cc(C)nn1CCO` [Example 59, N-(6-{[1-(2-hydroxyethyl)-3-methyl-1H-pyrazol-5-yl]amino}-5-methoxy-1,2-benzoxazol-3-yl)-2,6-dimethoxybenzene-1-sulfonamide]: the Ki in assay [1] (setting [7]) is more than 2870 nM; in assay [2] it was 580 nM.

`CCOc1cccc(OC)c1S(=O)(=O)Nc1noc2cc(Nc3cc[nH]n3)c(OC)cc12` [Example 30, 2-ethoxy-6-methoxy-N-{5-methoxy-6-[(1H-pyrazol-3-yl)amino]-1,2-benzoxazol-3-yl}benzene-1-sulfonamide]: the Ki in assay [1] (setting [7]) is 248 nM; in assay [3] (setting [8]), 0.5 nM; in assay [4] (setting [9]), 676 nM; in assay [6] (setting [11]) it was 26 nM; in assay [5] (setting [10]), 605 nM.

As to `COc1cc2c(NS(=O)(=O)c3c(OC)cc(N4CCN(C)CC4)cc3OC)noc2cc1Nc1cc(C2CC2)n[nH]1` [Example 251, N-{6-[(3-cyclopropyl-1H-pyrazol-5-yl)amino]-5-methoxy-1,2-benzoxazol-3-yl}-2,6-dimethoxy-4-(4-methylpiperazin-1-yl)benzene-1-sulfonamide], the Ki in assay [1] (setting [12]) was determined as 6.2 nM; in assay [3] (setting [13]), 1 nM; in assay [4] (setting [14]) it was 1150 nM; in assay [6] (setting [15]) it was 2.1 nM; in assay [5] (setting [16]) it was 67 nM.

As to `CCOc1cccc(OC)c1S(=O)(=O)Nc1noc2cc(Nc3cc(C(C)C)[nH]n3)c(OC)cc12` [Example 83, 2-ethoxy-6-methoxy-N-(5-methoxy-6-{[5-(propan-2-yl)-1H-pyrazol-3-yl]amino}-1,2-benzoxazol-3-yl)benzene-1-sulfonamide], the Ki worked out at 60.1 nM in assay [1] (setting [7]); 2.9 nM in assay [3] (setting [8]); 10400 nM in assay [4] (setting [9]); 7.8 nM in assay [6] (setting [11]); 502 nM in assay [5] (setting [10]).

Take `COc1cc2c(NS(=O)(=O)c3c(OC)cc(N4CC[C@@H](F)C4)cc3OC)noc2cc1Nc1cc(C2CC2)n[nH]1` [Example 249, N-{6-[(3-cyclopropyl-1H-pyrazol-5-yl)amino]-5-methoxy-1,2-benzoxazol-3-yl}-4-[(3R)-3-fluoropyrrolidin-1-yl]-2,6-dimethoxybenzene-1-sulfonamide]: the Ki was 1.7 nM in assay [1] (setting [12]); 0.3 nM in assay [3] (setting [13]); 104 nM in assay [4] (setting [14]); 0.3 nM in assay [6] (setting [15]); 8.7 nM in assay [5] (setting [16]).

Regarding `COc1cc2c(NS(=O)(=O)c3c(OC)cc([C@H]4CCCN4C)cc3OC)noc2cc1Nc1cc(C2CC2)n[nH]1` [Example 188, N-{6-[(3-cyclopropyl-1 H-pyrazol-5-yl)amino]-5-methoxy-1,2-benzoxazol-3-yl}-2,6-dimethoxy-4-[(2R)-1-methylpyrrolidin-2-yl]benzene-1-sulfonamide], the inhibitory constant (Ki) was 8.4 nM in assay [1] (setting [7]); 2.5 nM in assay [3] (setting [8]); 3690 nM in assay [4] (setting [9]); 2.9 nM in assay [6] (setting [11]); 140 nM in assay [5] (setting [10]).

As to `COc1cc2c(NS(=O)(=O)c3c(OC)cc(C4COC(C)(C)CO4)cc3OC)noc2cc1Nc1cc(C2CC2)n[nH]1` (single isomer, unassigned) [Example 186, N-{6-[(3-cyclopropyl-1 H-pyrazol-5-yl)amino]-5-methoxy-1,2-benzoxazol-3-yl}-4-(5,5-dimethyl-1,4-dioxan-2-yl)-2,6-dimethoxybenzene-1-sulfonamide], the Ki in assay [1] (setting [7]) stood at 3.6 nM; in assay [3] (setting [8]), 0.8 nM; in assay [4] (setting [9]), 590 nM; in assay [6] (setting [11]), 1.5 nM; in assay [5] (setting [10]) it was 5.8 nM.

As for `CCc1cc(Nc2cc3onc(NS(=O)(=O)c4ccc(C(=O)NCCCCCN)cc4OC)c3cc2OC)[nH]n1` [Example 96, N-(5-aminopentyl)-4-({6-[(3-ethyl-1H-pyrazol-5-yl)amino]-5-methoxy-1,2-benzoxazol-3-yl}sulfamoyl)-3-methoxybenzamide], the Ki in assay [1] (setting [7]) was 103 nM; in assay [3] (setting [8]) it was 7.3 nM; in assay [4] (setting [9]) it was more than 13000 nM; in assay [6] (setting [11]), 13.6 nM; in assay [5] (setting [10]), 2050 nM.

Regarding `COc1cc2c(NS(=O)(=O)c3c(OC)cc(N4CCN(C)C(=O)C4)cc3OC)noc2cc1Nc1cc(C2CC2)n[nH]1` [Example 254, N-{6-[(3-cyclopropyl-1H-pyrazol-5-yl)amino]-5-methoxy-1,2-benzoxazol-3-yl}-2,6-dimethoxy-4-(4-methyl-3-oxopiperazin-1-yl)benzene-1-sulfonamide], the Ki was 6.6 nM in assay [1] (setting [12]); 0.7 nM in assay [3] (setting [13]); 1260 nM in assay [4] (setting [14]); 1.2 nM in assay [6] (setting [15]); 54.5 nM in assay [5] (setting [16]).

As for `COc1cc2c(NS(=O)(=O)c3c(OC)cc(C4COC(C)(C)CO4)cc3OC)noc2cc1Nc1cc(C2CC2)n[nH]1` (single isomer, unassigned) [Example 185, N-{6-[(3-cyclopropyl-1 H-pyrazol-5-yl)amino]-5-methoxy-1,2-benzoxazol-3-yl}-4-(5,5-dimethyl-1,4-dioxan-2-yl)-2,6-dimethoxybenzene-1-sulfonamide], the Ki in assay [1] (setting [7]) was found to be 1.8 nM; in assay [3] (setting [8]), 0.3 nM; in assay [4] (setting [9]), 1220 nM; in assay [6] (setting [11]) it was 0.9 nM; in assay [5] (setting [10]), 1 nM.

On to `COc1cc2c(NS(=O)(=O)c3c(OC)cc(C4CCCCN4C)cc3OC)noc2cc1Nc1cc(C2CC2)n[nH]1` (racemic) [Example 155, N-{6-[(3-cyclopropyl-1 H-pyrazol-5-yl)amino]-5-methoxy-1,2-benzoxazol-3-yl}-2,6-dimethoxy-4-(1-methylpiperidin-2-yl)benzene-1-sulfonamide], for which the results for the Ki in assay [1] (setting [7]), in assay [2] and in assay [3] (setting [8]) were 24.3 nM, 14.9 nM and 2.9 nM, respectively.

Consider `CCc1cc(Nc2cc3onc(NS(=O)(=O)c4ccc(C(=O)NCCCCCNC(=O)c5ccc(-c6nnc(C)nn6)cc5)cc4OC)c3cc2OC)[nH]n1` [Example 138, 4-({6-[(3-Ethyl-1 H-pyrazol-5-yl)amino]-5-methoxy-1,2-benzoxazol-3-yl}sulfamoyl)-3-methoxy-N-{5-[4-(6-methyl-1,2,4,5-tetrazin-3-yl)benzamido]pentyl}benzamide], for which the Ki is 40.6 nM in assay [1] (setting [7]); 1.2 nM in assay [3] (setting [8]); more than 13000 nM in assay [4] (setting [9]); 5.6 nM in assay [6] (setting [11]); 195 nM in assay [5] (setting [10]).

In the case of `COc1cc2c(NS(=O)(=O)c3c(OC)cc(C4COCC(C)(C)O4)cc3OC)noc2cc1Nc1cc(C2CC2)n[nH]1` (single isomer, unassigned) [Example 184, N-{6-[(3-cyclopropyl-1 H-pyrazol-5-yl)amino]-5-methoxy-1,2-benzoxazol-3-yl}-4-(6,6-dimethyl-1,4-dioxan-2-yl)-2,6-dimethoxybenzene-1-sulfonamide], the Ki in assay [1] (setting [7]) turned out to be 4.7 nM; in assay [3] (setting [8]), 1.8 nM; in assay [4] (setting [9]) it was 1030 nM; in assay [6] (setting [11]), 1.6 nM; in assay [5] (setting [10]), 60.7 nM.

Usually Ki stands for the dissociation constant of the complex between target and ligand, obtained from inhibition or displacement.
